From patent publication US10537590B2, “Cyclic dinucleotide compounds” (BOEHRINGER INGELHEIM INTERNATIONAL GMBH, priority 2016, dated 2020)
Counter-ions that a name gives are not always drawn.

Experiments:
[1] = target: Human STING (hSTING, residues 155-341, wild-type sequence) (Homo sapiens, UniProt Q86WV6, H232R); assay: Differential Scanning Fluorimetry (DSF), hSTING Tm shift; type: binding; details: 100 uM test compound, 3 uM target protein; for hSTING Tm shift: Sodium Salt
Source text: The dissociation curves were processed in Bio-Rad CFX Manager. • Peak type was set to “negative”.

[2] = target: human STING protein in THP1-Blue ISG cells (Homo sapiens, UniProt Q86WV6, G230A/H232R/R293Q/R71H); assay: In vitro cytokine induction, THP1-Blue ISG IRF-inducible SEAP reporter assay; details: 24 hours incubation, OD at 620 nm
Sequence of human STING protein in THP1-Blue ISG cells (Q86WV6 whole entry R71H/G230A/H232R/R293Q): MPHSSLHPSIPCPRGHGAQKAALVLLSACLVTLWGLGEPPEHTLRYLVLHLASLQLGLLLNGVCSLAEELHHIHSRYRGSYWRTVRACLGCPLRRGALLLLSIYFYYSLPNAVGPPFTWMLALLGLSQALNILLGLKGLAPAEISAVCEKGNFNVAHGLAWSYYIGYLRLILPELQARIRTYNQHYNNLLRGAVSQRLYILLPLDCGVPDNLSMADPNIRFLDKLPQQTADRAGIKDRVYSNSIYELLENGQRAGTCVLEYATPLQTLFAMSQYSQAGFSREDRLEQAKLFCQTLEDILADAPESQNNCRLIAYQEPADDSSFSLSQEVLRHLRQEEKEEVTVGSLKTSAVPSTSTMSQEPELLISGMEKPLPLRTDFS
Protocol: In Vitro Cytokine Induction
Using Invivogen's QUANTI-Blue™ colorimetric enzyme assay and a suitable optical density (OD) reader the activity of SEAP can be detected and quantified.
Measurements of SEAP activity were performed in THP1-Blue ISG cells stably expressing the human STING protein and the IRF-inducible SEAP reporter construct. Cells were cultivated for expansion in RPM11640 medium with 10% fetal calf serum, 50 μg/ml Penicillin-Streptomycin, 100 μg/ml Zeocin, and 100 μg/ml Normocin in a 37°, 95% humidity and 5% CO2 incubator. Assay-ready cells were stored as frozen stocks In preparation for the assay, the cells thawed in Zeocin-/Normocin-free medium and were distributed into the assay plates with a density of 15000 cells/15 μL per well. Compounds were prepared by an 8 or 16 point serial dilution in 50% aqueous DMSO and a final dilution step into medium to ensure a final DMSO concentration of 0.5% in the assay. 5 μL of diluted compounds plus 5 μL medium were added to the plates, followed by a 24 hours incubation at 37° C.
At the day of the assay, 75 μl per well of Quanti-Blue reagent was added to all wells of the plate and the plate was incubated another 30 minutes at 37° C. The OD at 620 nm was measured on the EnVision reader (PerkinElmer).

[3] = Mouse PK, plasma concentration after intravenous administration; type: in vivo; details: male C57BL/6NRj mouse, 10 μmol/Kg, mean of duplicate experiments
Protocol: The mouse PK of compounds of the invention was determined using the following method:
The compound was dissolved in a solution of physiological NaCl and administered intravenously to male C57BL/6NRj mouse at a dose of 10 μmol/Kg. A 20 μL blood sample was collected at 0.25, 0.5, 0.75, 1 and 2 h by taking ETDA as anticoagulant. Blood plasma was generated by centrifugation and stored at −20° C. The compound concentration was determined by LC-MS/MS.

Sequence of Human STING (hSTING, residues 155-341, wild-type sequence) (Q86WV6 155-341 H232R): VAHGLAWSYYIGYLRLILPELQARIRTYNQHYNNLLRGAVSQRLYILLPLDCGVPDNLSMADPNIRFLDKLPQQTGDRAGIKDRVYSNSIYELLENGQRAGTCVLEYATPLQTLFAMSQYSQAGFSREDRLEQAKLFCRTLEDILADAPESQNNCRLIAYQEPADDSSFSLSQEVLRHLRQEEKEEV

Row | ΔTm at 100 µM [1] [°C] | EC50 [2] [µM] | compound concentration in plasma, T = 0.25 h [3] [nM] | compound concentration in plasma, T = 0.5 h [3] [nM] | compound concentration in plasma, T = 0.75 h [3] [nM] | compound concentration in plasma, T = 1 h [3] [nM] | compound concentration in plasma, T = 2 h [3] [nM] | hSTING Tm shift [1] [°C] | Structure (SMILES)
1 | 9 | 8.5 |  |  |  |  |  |  | Nc1ncnc2c1ncn2[C@@H]1O[C@]23CO[C@@H]1[C@@H]2OP(=O)(S)OC[C@H]1O[C@@H](n2cnc4c(=O)[nH]ncc42)[C@H](OP(=O)(S)OC3)[C@@H]1O (single isomer, unassigned) [Example 3.2, Cyclic (imidazopyridazinon-β-D-ribofuranoside-(2′→5′)-phosphorothioate-LNA-adenine-(3′→5′)-phosphorothioate), Sodium Salt]
2 |  | 0.17 | 2710 | 1280 | 595 | 260 | 111 | 17.0 | Nc1ncnc2c1ncn2[C@@H]1O[C@]23CO[C@@H]1[C@@H]2OP(=O)(S)OC[C@H]1O[C@@H](n2cnc4c(=O)[nH]ncc42)[C@H](OP(=O)(S)OC3)[C@@H]1O (single isomer, unassigned) [Example 3.1, Cyclic (imidazopyridazinon-β-D-ribofuranoside-(2′→5′)-phosphorothioate-LNA-adenine-(3′→5′)-phosphorothioate), Sodium Salt]
3 |  |  | 1970 | 699 | 401 | 241 | 78 |  | Nc1ncnc2c1ncn2[C@@H]1O[C@@H]2COP(=O)(S)O[C@@H]3[C@H](O)[C@@H](COP(=O)(S)O[C@H]2[C@H]1F)O[C@H]3n1cnc2c(=O)[nH]ncc21 (single isomer, unassigned) [Example 2.1, Cyclic (imidazopyridazinon-β-D-ribofuranoside-(2′→5′)-phosphorothioate-2′-F-2′-deoxyadenosine-(3′→5′)-phosphorothioate]
4 |  |  | 3080 | 1200 | 550 | 249 | 120 |  | Nc1ncnc2c1ncn2[C@@H]1O[C@@H]2COP(=O)(S)O[C@H]3C(n4cnc5c(=O)[nH]ncc54)O[C@H](COP(=O)(S)O[C@H]2[C@H]1O)[C@H]3O (single isomer, unassigned) [Example 1.1, Cyclic (imidazopyridazinon-β-D-ribofuranoside-(2′→5′)-phosphorothioate-adenosine-(3′→5′)-phosphorothioate)]
5 | 13.9 | 0.19 |  |  |  |  |  |  | O=c1[nH]ncc2c1ncn2[C@@H]1O[C@@H]2COP(=O)(S)O[C@H]3[C@@H](O)[C@H](n4cnc5cncnc54)O[C@@H]3COP(=O)(S)O[C@@H]1[C@@H]2O (single isomer, unassigned) [Example 4.1, Cyclic (imidazopyridazinon-β-D-ribofuranoside-(2′→5′)-phosphorothioate-purine-β-D ribofuranoside-(3′→5′)-phosphorothioate), Sodium Salt]
6 |  | 6.2 |  |  |  |  |  | 9.0 | O=c1[nH]ncc2c1ncn2[C@@H]1O[C@@H]2COP(=O)(S)O[C@H]3[C@@H](O)[C@H](n4cnc5cncnc54)O[C@@H]3COP(=O)(S)O[C@@H]1[C@@H]2O (single isomer, unassigned) [Example 4.2, Cyclic (imidazopyridazinon-β-D-ribofuranoside-(2′→5′)-phosphorothioate-purine-β-D ribofuranoside-(3′→5′)-phosphorothioate), Sodium Salt]
